Test results from article PMC12459314, “Subcutaneous administration of a novel TRPM8 antagonist reverses cold hypersensitivity while attenuating the drop in core body temperature” (British journal of pharmacology, 2024).

Assays:
[1] = Core body temperature by radiotelemetry after i.c.v. administration; type: in vivo, mouse; conditions: 306 nmol per 1 μL i.c.v.
Procedure: A second set of male C57Bl6J mice (Jackson Laboratories, n = 8) was implanted with telemetry as described above and a 26-gauge brain cannula (Plastics One) targeted at the lateral ventricle using coordinates relative to Bregma: 0.3 mm caudal, 1.0 mm lateral, 3.0 mm ventral. This second procedure was also performed under isoflurane anesthesia. The brain cannula was secured to the skull with two screws and dental cement. Animals were treated with buprenex (0.05 mg·kg^−1, s.c. every 8 h for 48 h) and enrofloxacin (2 mg·kg^−1, s.c.), singly housed and handled daily as described above. A single i.c.v. injection was performed every other day in a randomized order and included: (1) Galanin-like peptide (3 nmol/1 μL), (2) VBJ103 (306 nmol/1 μL) and (3) VBJ103 vehicle (1 μL). Galanin-like peptide produced a decrease in body temperature in five of eight mice. Therefore, body temperature data in response to VBJ103 and vehicle are presented in these five mice. These studies were carried out with a single dose of VBJ103 (306 nmol/1 μL or ~4 mg·kg^−1), which was the highest dose achievable due to constraints of the injection volume and the solubility of VBJ103.

TRPM8 = tested on: TRPM8; design: method as in Journigan et al., 2020; conditions: 30 mg·kg−1, s.c.; ref Journigan et al., 2020; cited from earlier work

O=C(NC1CCC2(CCCC2)CC1)c1ccc(-c2ccccc2)cc1 [VBJ103, N-(Spiro[4.5]decan-8-yl)-[1,1′-biphenyl]-4-carboxamide]
change in CBT compared to vehicle [1]: did not significantly (P > 0.05) alter
icilin-induced wet dog shaking (WDS) behaviour (TRPM8): suppresses
